Laboratory results from publication PMC10076258, “New carbohydrate binding domains identified by phage display based functional metagenomic screens of human gut microbiota” (Communications Biology, 2023).

Key:
MN3 = target: T1, MN3 (unidentified, UniProt Z9ZPU1GRL3); test: isothermal titration calorimetry; format: binding, Homo sapiens; conditions: 20 mM HEPES, 150 mM NaCl, pH 7.5; sequential two-sites model, stronger site
T1 construct: metagenomic phage display insert in pET-28a(+) (EcoRI/HindIII), N- and C-terminal His6 kept, E. coli BL21(DE3); monomer (~33 kDa) and dimer (~77 kDa); GenBank entry within MN313892-MN313895, ON711254-ON711279, not assigned in text
T1 sequence (Z9ZPU1GRL3 1-298): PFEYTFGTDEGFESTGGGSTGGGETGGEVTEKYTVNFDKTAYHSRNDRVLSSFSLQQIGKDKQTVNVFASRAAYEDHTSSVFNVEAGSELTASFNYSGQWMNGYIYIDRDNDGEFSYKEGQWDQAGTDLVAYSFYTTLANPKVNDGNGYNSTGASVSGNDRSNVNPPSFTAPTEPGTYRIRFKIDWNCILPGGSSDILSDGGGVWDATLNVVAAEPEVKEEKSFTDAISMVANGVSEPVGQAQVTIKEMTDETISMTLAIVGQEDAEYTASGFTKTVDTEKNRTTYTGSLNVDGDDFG

MU1 = target: T2, MU1 (unidentified, UniProt Z9NE32H8P7); test: isothermal titration calorimetry; format: binding, Homo sapiens; conditions: 20 mM HEPES, 150 mM NaCl, pH 7.5; sequential two-sites model, stronger site
T2 construct: metagenomic phage display insert in pET-28a(+) (NdeI/XhoI; forward primer in the T7 vector upstream of the insert), N-terminal His6 kept, E. coli BL21(DE3); monomer, ~39 kDa by SEC; GenBank entry within MN313892-MN313895, ON711254-ON711279, not assigned in text
T2 sequence (Z9NE32H8P7 1-238): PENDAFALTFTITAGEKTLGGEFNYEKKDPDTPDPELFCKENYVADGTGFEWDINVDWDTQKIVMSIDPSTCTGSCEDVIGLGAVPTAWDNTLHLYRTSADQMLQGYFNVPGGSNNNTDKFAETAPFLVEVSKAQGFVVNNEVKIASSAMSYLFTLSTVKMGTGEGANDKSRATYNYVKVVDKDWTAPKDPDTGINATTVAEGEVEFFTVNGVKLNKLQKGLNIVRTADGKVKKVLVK

Fetuin = target: T3, Fetuin (UniProt P12763 19-359, sialylated); test: ITC; VP-ITC; protein in the sample cell, ligand titrated (20 or 35 injections at intervals of 180 s); buffer mostly 20 mM HEPES, 150 mM NaCl, pH 7.5; single run; conditions: both partners purified
T3 construct: fetuin, a glycoprotein used as a glycan ligand in calorimetry; also called sialylated fetuin
T3 sequence (looked up): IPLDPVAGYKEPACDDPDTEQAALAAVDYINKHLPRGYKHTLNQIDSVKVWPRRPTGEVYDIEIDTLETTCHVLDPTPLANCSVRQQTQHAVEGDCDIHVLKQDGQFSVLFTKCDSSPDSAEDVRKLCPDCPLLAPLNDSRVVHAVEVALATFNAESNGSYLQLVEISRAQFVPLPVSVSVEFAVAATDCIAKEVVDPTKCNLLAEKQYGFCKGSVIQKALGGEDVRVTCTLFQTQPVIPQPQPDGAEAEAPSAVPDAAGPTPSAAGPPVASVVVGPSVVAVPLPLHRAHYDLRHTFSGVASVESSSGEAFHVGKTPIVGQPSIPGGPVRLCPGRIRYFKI

[1] = target: MN3 (human fecal metagenome (organism not identified)); test: SEC; HiPrep 26/60 HR Sephacryl S-200, 150 mM NaCl, 20 mM Tris pH 7.5, mostly 1.0 ml/min

C#CCN(C(C)=O)[C@@H]1O[C@H](CO)[C@@H](O[C@@H]2O[C@H](CO)[C@H](O)[C@H](O[C@@H]3O[C@H](CO)[C@@H](O[C@@H]4O[C@H](CO)[C@H](O)[C@H](O)[C@H]4O[C@@H]4O[C@@H](C)[C@@H](O)[C@@H](O)[C@@H]4O)[C@H](O)[C@H]3NC(C)=O)[C@H]2O)[C@H](O)[C@H]1O [H antigen type-2 pentaose]
Kd (MN3): 36.8 µM | Kd (MU1): 20.8 µM

B1: MU3 (domain or fragment)
chain: QTPKDVTVVEKYQADGTGFSHTINVDWDKQKIVASIDFSNGGDDKDILAMTTGDSFTAFQTSTYRTMHWYCNQTAKQISGFFAKSGAGNNNTGRIDVADCLAKFEISKAEGLKVNGVVKMTPDALEELLTGDPIIIGSGESPKFSNAFYNYIKVVSLDWKETTEPEVTVKDEKTFNEALYMQDQKVADATVVVKG
Kd (Fetuin): 239 µM

B2: MN3 (domain or fragment)
chain: T1 sequence (Z9ZPU1GRL3 1-298)
modifications: not checked
stoichiometry N [1]: 2
